In patent publication US10085998B2, “Salts of potassium ATP channel openers and uses thereof” (Essentialis, Inc., priority 2006, dated 2018):
“Also recorded” adds a separate entry of the source. Counter-ions that a name gives are not always drawn. Like-named read-outs stand apart in the source and are kept apart here.

Experiments:
[1] = Excipient compatibility study for diazoxide choline salt; format: physicochemical; conditions: excipient 100 mg + diazoxide choline salt 100 mg
[2] = Moisture sorption analysis; format: physicochemical; conditions: for Moisture sorption: hygroscopicity: relative humidity scan; for XRPD pattern following the moisture sorption/desorption analysis: after moisture sorption experiment; for Hysteresis upon desorption / hydrate formation: desorption scan
Description: Moisture Sorption Analysis was performed with a Hiden IGAsorp Moisture Sorption Instrument. Samples were first dried at 0% relative humidity at 25° C. until an equilibrium weight was reached, or for a maximum of 4 hours. Samples were then subjected to an isothermal (25° C.) scan from 10-90% relative humidity in steps of 10%. The samples were allowed to equilibrate to an asymptotic weight at each point for a maximum of 4 hours. Following absorption, a desorption scan from 85% relative humidity (at 25° C.) was run in steps of −10%, again allowing a maximum of 4 hours for the samples to equilibrate. The resulting samples after desorption were dried at 80° C. for two hours and analyzed by XRPD.

[3] = Form conversion and degradation under thermal stress; conditions: for Thermal stability of form: 7 days
Description: Studies were also conducted to evaluate the likelihood for conversion and degradation under thermal stress.

[4] = Slurry studies (inter-conversion of the solid form); conditions: for Slurry study: conversion of solid form: dichloromethane (CH2Cl2) and toluene, 7 and 14 days; for Slurries: conversion of solid form: 50/50 mixtures of Forms C, D and F in ethyl acetate, acetonitrile and isopropanol, room temperature
Description: Slurry experiments were performed on each form to determine propensity for conversion and to see if a unique form could be generated.

[5] = Solubility measurements at pH 2, 7 and 12 in phosphate buffer; conditions: solids after solubility analysis (choline salt: pH 2 and 7 only)
Description: (§1) Solubility concentrations were determined using area-percent calculations with HPLC calibration curves.

[6] = pH 2
Description: as §1

[7] = all physiological relevant pH values from pH 2.0 to pH 8.5; deionized water, buffered aqueous solutions
Description: UV spectroscopy was performed with a Perkin-Elmer Lambda 25 spectrometer. Samples were dissolved in acetonitrile, water and a buffer system having a pH between 5.6 and 10. Spectra were acquired between 340 and 190 nm, using a 1 cm path length with background correction.

[8] = Solubility screen of diazoxide potassium salt in various solvents; format: physicochemical
Description: Solvents affording poor to fair solubility were used as antisolvents in binary/ternary crystallizations as well as slurry studies. Table 29 summarizes the results of the solubility screen.

[9] = Crystallization screening for polymorphic forms (single/binary solvent, fast/slow cooling, XRPD); format: physicochemical
physchem = conditions: thermodynamic from solid
Description: as §1

[10] = 60° C., closed, protected from light, 7 and 14 days
[11] = 25° C., listed as Choline diazoxide salt
[12] = 25° C., listed as Potassium diazoxide salt

For `CC1=Nc2ccc(Cl)cc2S(=O)(=O)N1` [Diazoxide Control], the “1 Month 40° C./75% RH % (w/w)” value ([1]; one-month storage 40° C./75% RH) was 99.0 % (w/w) and the “1 Month 50° C. % (w/w)” value ([1]; one-month storage 50° C.) was 99.4 % (w/w).
In the case of `CC1=Nc2ccc(Cl)cc2S(=O)(=O)[N-]1.C[N+](C)(C)CCO` [Form A], the “Moisture sorption: hygroscopicity” value ([2]; 25° C.) is reported as “Hygroscopic - deliquesced”, the “Water absorbed at 60% RH” value ([2]; 25° C.) is reported as 2.4 wt % and the “XRPD pattern following the moisture sorption/desorption analysis” value [2] is reported as “consistent with Form A”. The “Form conversion and degradation under thermal stress (XRPD, DSC)” value (“Form conversion and degradation” for short) [3, 10] was “Started to convert to Form” and the “Slurry study: conversion of solid form” value ([4]; n-heptane) was “conversion to Form B was observed after seven days; also recorded: Converted to Form B after”.
For `CC1=Nc2ccc(Cl)cc2S(=O)(=O)[N-]1.C[N+](C)(C)CCO` [Form B], the “Moisture sorption: hygroscopicity” value ([2]; 25° C.) was “Hygroscopic - deliquesced”, the “Water absorbed at 60% RH” value ([2]; 25° C.) was 7.4 wt % and the “XRPD pattern following the moisture sorption/desorption analysis” value [2] was “remained in the Form B crystal structure”. The “Form conversion and degradation” value [3, 10] was “Stable after 14 days at”, the “Slurry study: conversion of solid form” value ([4]; n-heptane) was “form conversion was not observed” and the “XRPD pattern of the solids obtained after the solubility analysis” value (from here on “XRPD pattern of the solids obtained”) [5] was “Form B of the choline salt of diazoxide was still present”.
For `CC1=Nc2ccc(Cl)cc2S(=O)(=O)[N-]1.CC1=Nc2ccc(Cl)cc2S(=O)(=O)[N-]1.O.[K+].[K+]` [Form D], the “Moisture sorption: hygroscopicity” value ([2]; 25° C.) was “hygroscopic; also recorded: Hygroscopic -”, the “XRPD pattern following the moisture sorption/desorption analysis” value [2] was “consistent with Form D” and the “Thermal stability of form” value ([3]; 60° C.) was “Stable (7 days)”. For the same molecule, the “Slurries: conversion of solid form” value [4] was “conversion to Form D was observed in all solvents; also recorded: Converted to Form D”.
With `C1COCCO1.CC1=Nc2ccc(Cl)cc2S(=O)(=O)[N-]1.CC1=Nc2ccc(Cl)cc2S(=O)(=O)[N-]1.[K+].[K+]` [Form F] the “Moisture sorption: hygroscopicity” value ([2]; 25° C.) was “hygroscopic”, the “XRPD pattern following the moisture sorption/desorption analysis” value [2] was “consistent with Form D” and the “Thermal stability of form” value ([3]; 60° C.) was “Stable (7 days)”. For the same molecule, the “Slurries: conversion of solid form” value [4] was “conversion to Form D was observed in all solvents; also recorded: Converted to Form D”.
In the case of `CC1=Nc2ccc(Cl)cc2S(=O)(=O)[N-]1.C[N+](C)(C)CCO` [choline salt of diazoxide], the “Hysteresis upon desorption / hydrate formation” value ([2]; 25° C.) is reported as “does not form a stable hydrate”, the “Hysteresis upon desorption / hydrate formation” value [2, 11] is reported as “no hysteresis” and the “Moisture sorption: hygroscopicity” value ([2]; 25° C.) is reported as “hygroscopic”. For the same molecule, the “Moisture sorption: hygroscopicity” value [2, 11] was “deliquescent -”, the “Water absorbed at 80% RH” value ([2]; 25° C.) was “over 28 wt %” and the “XRPD pattern following the moisture sorption/desorption analysis” value [2] was “changed to an alternate crystalline form”. For the same molecule, the “Degradation by HPLC after thermal stress” value [3] was “did not show any significant degradation”, the “Form conversion and degradation” value [3] was “consistent with the starting material, as well as the presence of additional unique peaks” and the “XRPD pattern of the solids obtained” value [6] was “changed back to the free form diazoxide material”. The “Fate of the salt in aqueous medium (UV/Vis absorbance)” value [7] was “hydrolyzes to the free base of diazoxide and choline hydroxide” and the “Slurry study: conversion of solid form” value ([4]; n-heptane, listed as Choline diazoxide salt) was “no propensity of inter-conversion”.
For `CC1=NS(=O)(=O)c2cc(Cl)ccc2N1` [potassium salt of diazoxide], the “Hysteresis upon desorption / hydrate formation” value ([2]; 25° C.) was “hemihydrate from 0-30% RH and a monohydrate from 35-75% RH”, the “Hysteresis upon desorption / hydrate formation” value [2, 12] was “hemi/monohydrate” and the “Moisture sorption: hygroscopicity” value ([2]; 25° C.) was “hygroscopic”. The “Moisture sorption: hygroscopicity” value [2, 12] was “deliquescent -”, the “Water absorbed at 60% RH” value ([2]; 25° C.) was 5.4 wt % and the “Water absorbed at 90% RH” value ([2]; 25° C., 90% RH) was 38.3 wt %. For the same molecule, the “XRPD pattern following the moisture sorption/desorption analysis” value [2] was “changed to an alternate crystalline form”, the “Degradation by HPLC after thermal stress” value ([3]; 60° C., 14 days, gradient area percent assay) was “did not show any significant degradation” and the “Form conversion and degradation” value [3, 10] was “showed unique peaks”. The Conc. ([8]; solvent Acetone, 55 ° C., 1.6 mg in 4.00 mL) was 400 µg/mL, the Soluble ([8]; solvent Acetone, 55 ° C., at 0.40 mg/mL) was “Yes” and the Conc. ([8]; solvent CH2Cl2, 55 ° C., 1.3 mg in 5.00 mL) was 260 µg/mL. For the same molecule, the Soluble ([8]; solvent CH2Cl2, 55 ° C., at […]) was “No”, the Conc. ([8]; solvent DMF, rt, 1.6 mg in 0.25 mL) was over 6400 µg/mL and the Soluble ([8]; solvent DMF, rt, at >6.40 mg/mL) was “Yes”. For the same molecule, the Conc. ([8]; solvent Dioxane, 55 ° C., 1.4 mg in 5.00 mL) was 280 µg/mL, the Soluble ([8]; solvent Dioxane, 55 ° C., at […]) was “No” and the Conc. ([8]; solvent EtOAc, 55 ° C., 1.8 mg in 5.00 mL) was 360 µg/mL. For the same molecule, the Soluble ([8]; solvent EtOAc, 55 ° C., at […]) was “No”, the Conc. ([8]; solvent EtOH, 55 ° C., 2.2 mg in 0.75 mL) was 2930 µg/mL and the Soluble ([8]; solvent EtOH, 55 ° C., at […]) was “Yes”. For the same molecule, the Conc. ([8]; solvent Heptane, 55 ° C., 1.2 mg in 5.00 mL) was 240 µg/mL, the Soluble ([8]; solvent Heptane, 55 ° C., at 0.24 mg/mL) was “No” and the Conc. ([8]; solvent IPA, 55 ° C., 2.1 mg in 1.00 mL) was 2100 µg/mL. For the same molecule, the Soluble ([8]; solvent IPA, 55 ° C., at […]) was “Yes”, the Conc. ([8]; solvent IPAc, 55 ° C., 1.7 mg in 5.00 mL) was 340 µg/mL and the Soluble ([8]; solvent IPAc, 55 ° C., at […]) was “No”. For the same molecule, the Conc. ([8]; solvent MEK, 55 ° C., 1.5 mg in 5.00 mL) was 300 µg/mL, the Soluble ([8]; solvent MEK, 55 ° C., at 0.30 mg/mL) was “Partially” and the Conc. ([8]; solvent MTBE, 55 ° C., 1.8 mg in 5.00 mL) was 360 µg/mL. The Soluble ([8]; solvent MTBE, 55 ° C., at […]) was “No”, the Conc. ([8]; solvent MeCN, 55 ° C., 1.7 mg in 2.00 mL) was 850 µg/mL and the Soluble ([8]; solvent MeCN, 55 ° C., at 0.85 mg/mL) was “Yes”. The Conc. ([8]; solvent MeOH, 55 ° C., 1.5 mg in 0.25 mL) was 6000 µg/mL, the Soluble ([8]; solvent MeOH, 55 ° C., at 6.00 mg/mL) was “Yes” and the Conc. ([8]; solvent THF, 55 ° C., 1.8 mg in 5.00 mL) was 360 µg/mL. The Soluble ([8]; solvent THF, 55 ° C., at […]) was “Partially”, the Conc. ([8]; solvent Toluene, 55 ° C., 1.4 mg in 5.00 mL) was 280 µg/mL and the Soluble ([8]; solvent Toluene, 55 ° C., at […]) was “No”. For the same molecule, the Conc. ([8]; solvent Water, 55 ° C., 1.5 mg in 5.00 mL) was 300 µg/mL, the Soluble ([8]; solvent Water, 55 ° C., at 0.30 mg/mL) was “No” and the Conc. ([8]; solvent c-Hexane, 55 ° C., 1.5 mg in 5.00 mL) was 300 µg/mL. For the same molecule, the Soluble ([8]; solvent c-Hexane, 55 ° C., at 0.30 mg/mL) was “No”, the Form ([9]; XRPD, single-solvent, fast-cooling, MeCN, 42.40 mg/mL, 80 ° C.) was “C +” and the Precipitate ([9]; binary-solvent, fast-cooling, McCN 0.6 mL (dissolved at 80° C.), anti-solvent CH2Cl2 1.0 mL) was “Yes”. The Precipitate ([9]; binary-solvent, fast-cooling, McCN 0.6 mL (dissolved at 80° C.), anti-solvent Dioxane 6.0 mL) was “Yes”, the Precipitate ([9]; binary-solvent, fast-cooling, McCN 0.6 mL (dissolved at 80° C.), anti-solvent EtOAc 6.0 mL) was “Yes” and the Precipitate ([9]; binary-solvent, fast-cooling, McCN 0.6 mL (dissolved at 80° C.), anti-solvent Heptane 2.0 mL) was “Yes”. For the same molecule, the Precipitate ([9]; binary-solvent, fast-cooling, McCN 0.6 mL (dissolved at 80° C.), anti-solvent IPAc 3.0 mL) was “Yes”, the Precipitate ([9]; binary-solvent, fast-cooling, McCN 0.6 mL (dissolved at 80° C.), anti-solvent MTBE 1.0 mL) was “Yes” and the Precipitate ([9]; binary-solvent, fast-cooling, McCN 0.6 mL (dissolved at 80° C.), anti-solvent THF 6.0 mL) was “No/Evap”. For the same molecule, the Precipitate ([9]; binary-solvent, fast-cooling, McCN 0.6 mL (dissolved at 80° C.), anti-solvent Toluene 1.0 mL) was “Yes”, the Precipitate ([9]; binary-solvent, fast-cooling, McCN 0.6 mL (dissolved at 80° C.), anti-solvent c-Hexane 2.0 mL) was “Yes” and the Precipitate ([9]; single-solvent, fast-cooling, Acetone, 10.35 mg/mL, 55 ° C.) was “No/Evap”. For the same molecule, the Precipitate ([9]; single-solvent, fast-cooling, EtOAc, 3.52 mg/mL, 75 ° C.) was “Yes”, the Precipitate ([9]; single-solvent, fast-cooling, IPA, 75.67 mg/mL, 62 ° C.) was “Yes” and the Precipitate ([9]; single-solvent, fast-cooling, MeCN, 42.40 mg/mL, 80 ° C.) was “Yes”. For the same molecule, the Precipitate ([9]; single-solvent, fast-cooling, Water, 13.73 mg/mL, 95 ° C.) was “Yes”, the Precipitate ([9]; single-solvent, fast-cooling, i-AmOH, 65.67 mg/mL, 73 ° C.) was “Yes” and the Precipitate ([9]; single-solvent, fast-cooling, t-AmOH, 8.76 mg/mL, 95 ° C.) was “Yes”. For the same molecule, the Precipitate ([9]; single-solvent, slow-cooling, IPA, 71.67 mg/mL, 80 ° C.) was “No/Evap”, the Precipitate ([9]; single-solvent, slow-cooling, MeCN, 45.60 mg/mL, 80 ° C.) was “Yes” and the Precipitate ([9]; single-solvent, slow-cooling, i-AmOH, 68.67 mg/mL, 80 ° C.) was “Yes”. For the same molecule, the “XRPD pattern of the solids obtained” value [6] was “changed back to the free form diazoxide material”, the solubility (physchem; pH 2, aqueous buffer) was 9.9 mg/mL and the solubility (physchem; pH 7, aqueous buffer) was 14.4 mg/mL. The solubility (physchem; pH 12, aqueous buffer) was 43 mg/mL, the “Slurry study: conversion of solid form” value ([4]; n-heptane) was “no propensity of inter-conversion” and the “Degradation by HPLC after slurry study” value ([4]; n-heptane, dichloromethane, toluene, gradient area percent assay) was “did not show any significant degradation”.
For `CC1=Nc2ccc(Cl)cc2S(=O)(=O)[N-]1.[Na+]` [sodium salt of diazoxide], the “Hysteresis upon desorption / hydrate formation” value ([2]; 25° C.) was “possible hydrate formation”, the “Moisture sorption: hygroscopicity” value ([2]; 25° C.) was “hygroscopic” and the “Moisture sorption: hygroscopicity” value ([2]; 25° C., listed as Sodium diazoxide salt) was “deliquescent -”. For the same molecule, the “Water absorbed at 60% RH” value ([2]; 25° C.) was 1.2 wt %, the “Water absorbed at 80% RH” value ([2]; 25° C.) was 6.6 wt % and the “Form conversion and degradation” value [3, 10] was “little propensity to change form or degrade”. The “Slurry study: conversion of solid form” value ([4]; n-heptane) was “no propensity of inter-conversion”.
